The target in one assay is α-adrenergic. The assay is described as follows: Radioligand binding (displacement of 3H-prazosin), rat cerebral cortex membranes. The procedure: (§1) The selectivity of 2-[N-3-fluoropropyl-N-2-(2 thienyl)ethylamine]-5-hydroxytetralin has been investigated using radioligand binding assays to determine the binding affinity at different receptor types, namely D1 and D2 dopamine and α-adrenergicreceptor sites.
(§2) Membranes derived from bovine striatum (for assaying dopamine receptors) and rat cerebral cortex (for assaying α-adrenergic receptors) were prepared as follows. The tissue was homogenized using a tissue disrupter and centrifuged. The pellet was washed by resuspension and centrifugation. The bovine striatal membranes were […] and thawed just prior to use. […]
On the technique in general: In a radioligand displacement assay an active substance lowers the binding of a labelled ligand.

The next assay concerns the target T1, D1 -dopamine (Bos taurus, UniProt Q95136).
T1 construct: Membranes derived from bovine striatum (for assaying dopamine receptors); from tissue; host or cells: bovine striatum membranes
Put plainly: Radioligand binding (displacement of 3H-SCH23390), bovine striatal membranes. The conditions noted are these: bovine striatum membranes. How it is done: as §1, §2

The next assay addresses T2, D2 -dopamine (Bos taurus, UniProt P20288).
T2 construct: Membranes derived from bovine striatum (for assaying dopamine receptors); from tissue; host or cells: bovine striatum membranes
The assay is described as follows: Radioligand binding (displacement of 3H-N-0437), bovine striatal membranes. How it is done: as §1
Membranes derived from bovine striatum (for assaying dopamine receptors) and rat cerebral cortex (for assaying α-adrenergic receptors) were prepared as follows. The tissue was homogenized using a tissue disrupter and centrifuged. The pellet was washed by resuspension and centrifugation. The bovine striatal membranes were […] and thawed just prior to use.
The radioligands ^3 H-prazosin, H^3 [((R)-(+)-8 chloro-2, 3, 4, 5-tetrahydro-3-methyl-5-phenyl-H-3-benzazepin-7-ol](^3 H-SCH23390), and H^3 [5-hydroxy-2-(N-n-propyl-N-2-[2-thienyl]ethylamino)tetralin] (^3 H-N-0437) were used to label α-adrenegic, D1 -dopamine and D2 -dopamine receptors, respectively. Increasing concentrations of 2-[N-3-fluoropropyl-N-2-(2-thienyl)ethylamine]-5-hydroxy-tetralin were used to displace the binding of these radioligands from their respective receptors. Competition binding curves were hand drawn to fit the data, and IC50 values were determined graphically. The IC50 value indicates the concentration of test drug required to displace from attachment at the receptor site of interst 50 percent of the ligands of known affinity already in attachment there.

T2 sequence (P20288 whole entry): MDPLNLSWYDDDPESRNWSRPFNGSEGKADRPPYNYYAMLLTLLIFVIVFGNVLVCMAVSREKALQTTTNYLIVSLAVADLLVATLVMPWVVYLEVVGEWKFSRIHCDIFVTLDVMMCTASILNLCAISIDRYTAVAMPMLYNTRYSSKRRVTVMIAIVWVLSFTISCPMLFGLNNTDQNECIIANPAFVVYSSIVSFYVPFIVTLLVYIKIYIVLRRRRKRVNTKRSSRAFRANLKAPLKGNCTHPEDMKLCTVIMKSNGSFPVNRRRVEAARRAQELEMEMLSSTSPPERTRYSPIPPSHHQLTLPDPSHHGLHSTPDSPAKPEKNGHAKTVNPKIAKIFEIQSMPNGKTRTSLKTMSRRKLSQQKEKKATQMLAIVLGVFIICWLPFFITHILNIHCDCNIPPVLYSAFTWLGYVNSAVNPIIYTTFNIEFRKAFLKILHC
T1 sequence (Q95136 whole entry): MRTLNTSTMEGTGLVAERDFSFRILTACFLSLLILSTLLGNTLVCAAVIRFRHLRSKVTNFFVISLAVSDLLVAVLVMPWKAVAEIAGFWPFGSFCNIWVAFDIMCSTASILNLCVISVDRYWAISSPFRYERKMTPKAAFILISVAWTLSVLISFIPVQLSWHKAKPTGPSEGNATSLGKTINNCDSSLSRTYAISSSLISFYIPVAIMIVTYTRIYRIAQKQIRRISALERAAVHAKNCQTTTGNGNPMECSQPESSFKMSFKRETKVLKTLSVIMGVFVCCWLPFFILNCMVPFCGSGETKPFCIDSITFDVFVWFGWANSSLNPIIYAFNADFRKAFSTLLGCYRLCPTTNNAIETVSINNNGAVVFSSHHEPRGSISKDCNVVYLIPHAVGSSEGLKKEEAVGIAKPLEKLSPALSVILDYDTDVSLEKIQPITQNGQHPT

In the case of `Oc1cccc2c1CCC(N(CCCF)CCc1cccs1)C2` (stereo not drawn) [2-[N-3-Fluoropropyl-N-2-(2-thienyl)ethylamino]-5-hydroxytetralin], the 50% inhibitory concentration (IC50) – broadly, the concentration at which inhibition is half-maximal – at α-adrenergic was 5.7 µM; at D1 -dopamine, above 10 µM; at D2 -dopamine (D2 -dopamine, 3H-N-0437, bovine striatum membranes), 0.00103 ± 0.00049 µM. Further, the “affinity for dopamine D2 receptor sites (in words)” value at D2 -dopamine is on record as “unexpectedly high affinity”. At D2 -dopamine (D2 versus α-adrenergic), the “times more potent in binding to D2 -dopamine receptors than to α-adrenergic receptors” value is “more than 5000 times”. Moreover, at D2 -dopamine (versus D1 and α-adrenergic), the “selectivity for D2 -dopamine receptors (in words)” value is “selective for D2 -dopamine receptors”.

For the origin of these results see patent US4931270A, “Method for detecting dopaminergic diseases using fluorine-18 radiolabelled D2 dopamine receptor ligands” (Nelson Research & Development, priority 1988, dated 1990).
